Source: US10183011B2, “Anti-depression compounds” (Board of Regents of the University of Texas System, priority 2009, dated 2019)
Several values for one entry are separate records, joined by “and”; a condition that tells them apart may be missing. Equal entries are not always repeated. Entries after “also recorded” stand apart in the source; their conditions may differ. Where two headings read alike, the source gives them in different places.

Legend:
[1] = Pharmacokinetic analysis in plasma and whole brain tissue; type: in vivo, mouse; details: for concentration at 5 h: brain, five hours after dosing, read-out: brain level
Description: Pharmacokinetic analysis of Example 45 Compound in plasma and whole brain tissue was undertaken after single IV, IP and oral gavage administrations. […] These favorable pharmacological properties facilitated a dose response experiment wherein daily oral administration of Example 45 Compound to adult mice was monitored for both brain levels of the chemical and pro-neurogenic efficacy (FIG. 7).

[2] = tested on: newborn neurons in the dentate gyrus; experiment: BrdU pulse-chase and doublecortin staining with oral dosing for 30 days; type: in vivo, mouse (C57/B6)
Description: FIG. 10A and FIG. 10B: Example 45 Compound enhances the survival of newborn neurons in the dentate gyrus. […] (FIG. 10B) Example 45 Compound enhances hippocampal neurogenesis by promoting survival of newborn neurons. Three month old wild type C57/B6 male mice were exposed to orally-delivered Example 45 Compound or vehicle for 30 days (n=5 animals/group), administered a single pulse of BrdU via IP injection (150 mg/kg), and then sacrificed 1 hour, 1 day, 5 days or 30 days later for immunohistochemical detection of BrdU incorporation into cells localized in the subgranular layer of the dentate gyrus. […] In this longer-term trial, BrdU+ cells were observed both in the SGZ and the granular layer of the dentate gyrus.
The nature of the cells produced in the subgranular zone of the dentate gyrus was investigated when Example 45 Compound was administered as follows. Animals were exposed to oral administration of Example 45 Compound for 30 days. Brain tissue was then prepared for immunohistochemical staining with an antibody to doublecortin (DCX), a microtubule-associated protein that serves as a marker of neurogenesis in the dentate gyrus by virtue of transient expression in newly formed neurons, but not glial cells, between the timing of their birth and final maturation (Brown et al., 2003).
Example 45 Compound-mediated neurogenesis was next investigated to see whether it was attributable to increased cell proliferation or protection of newborn cells from cell death during the time between their birth and eventual incorporation into the granular layer of the dentate gyrus. This was accomplished by comparing the ability of Example 45 Compound to enhance either short- or long-term increases in the incorporation of BrdU in the dentate gyrus (FIG. 10B). Animals exposed to orally-delivered Example 45 Compound or vehicle for 30 days were administered a single pulse of BrdU via IP injection. Short-term effects on neuron birth were monitored by sacrificing animals one hour post-BrdU injection, followed by fixation of the tissue, sectioning and immunohistochemical detection of BrdU incorporation into cells localized in the subgranular layer of the dentate gyrus. […] It is hypothesized that these cells represent mature neurons that have migrated into the granular layer, completed the differentiation process, and incorporated themselves into the dentate gyrus as properly wired neurons. Observations supportive of this interpretation will be presented in a subsequent section of this document. In summary, these experiments give evidence that Example 45 Compound enhances the formation of neurons in the mature hippocampus, and that its mode of action would appear to take place at some point subsequent to their birth.

[3] = tested on: hypothalamic neural precursor cells; experiment: Hypothalamic neurogenesis (BrdU); type: in vivo, mouse (C57BL/6); details: 10 mg/kg twice daily i.p.
Description: FIG. 27. Example 45 Compound (P7C3) Augments Hypothalamic Neurogenesis. Administration of P7C3 for a one month period of time augments proliferation of hypothalamic neural precursor cells (shown in red) in the arcuate nucleus (ARC), dorsomedial hypothalamus (DMH) and ventralmedial hypothalamus (VMH). Micrographs shown are representative of staining from every third section throughout the hypothalamus in 4-6 mice for each treatment group.
It was evaluated whether P7C3 might augment hypothalamic neurogenesis by administering either vehicle or P7C3 (10 mg/kg twice daily, i.p.) to nine week old male C57BL/6 mice, starting two days before implantation of 7 day Alzet osmotic minipumps (model 1007d) loaded with BrdU (1 mg/kg). Pumps were connected to a cannula that delivered BrdU at a constant rate into the left lateral ventricle for the seven day period, during which time animals continued to receive either vehicle or P7C3. Pumps were surgically removed at the conclusion of their 7 day operating period, and mice were allowed to survive for 4 more weeks, during which time they continued to receive either vehicle or P7C3. At the end of the 4 week period, mice were deeply anesthetized with intraperitoneal (i.p.) injection of mouse anesthetic cocktail and transcardially perfused with 4% paraformaldehyde (PFA) in phosphate buffered saline (pH 7.4). […]

SMILES	concentration at 5 h ([1]; mouse, oral 1 mg/kg)	concentration at 5 h ([1]; mouse, oral 2.5 mg/kg)	concentration at 5 h ([1]; mouse, oral 5 mg/kg)	half-life ([1]; mouse, plasma, after IP delivery, read-out: plasma terminal half life (converted)) [h]	blood-brain barrier crossing ([1]; single IV, IP and oral gavage administrations)	oral bioavailability ([1]; single oral gavage administration)	doublecortin (DCX) staining of newborn neurons ([2]; 20 mg/kg daily for 30 days by oral gavage)	increase in BrdU+ cells compared to vehicle ([2]; 5 days after BrdU pulse) [%]	increase in abundance of BrdU+ cells in the dentate gyrus relative to vehicle ([2]; daily oral dose for 30 days starting 24 hours after BrdU pulse) [fold]	BrdU+ cells versus vehicle, short term ([2]; oral for 30 days, 1 hour or 1 day after BrdU pulse)	hypothalamic neurogenesis (BrdU positive staining) [3]
OC(CNc1ccccc1)Cn1c2ccc(Br)cc2c2cc(Br)ccc21 (centres unmarked) [Example 45 Compound]	213 nM and 101 ng/g	1.13 µM and 534 ng/g	1.35 µM and 640 ng/g	6.7	readily able to cross the blood-brain barrier	orally bioavailable	increased dramatically; also recorded: substantially increased	25	5	did not lead to an elevation in the level of BrdU-positive cells relative to vehicle; also recorded: No significant differences	–
OC(CNc1ccccc1)Cn1c2ccc(Br)cc2c2cc(Br)ccc21 (centres unmarked) [Example P7C3]	–	–	–	–	–	–	–	–	–	–	markedly enhances hypothalamic neurogenesis
